{"source": "patent US4562176A", "about": "“Method and composition for treating cancer” (priority 1985, dated 1985)", "key": {"[1]": {"system": "human lymphoblastic leukemia cells (CCRF-CEM)", "experiment": "In vitro growth inhibition of CCRF-CEM cells", "assay_type": "cell-based", "conditions": "for In Vitro (CCRF-CEM) ID50: cells in log-phase growth, suspension culture, final growth medium 5% Me2SO", "description": "^b Human lymphoblastic luekemia cells in logphase growth and in a\nsuspension culture. Compounds were dissolved in Me2 SO medium, final\ngrowth medium contained 5% Me2 SO.\nIn vitro growth inhibition of the analogues were assayed against human lymphoblastic leukemia cells (CCRF-CEM) in log phase. The most cyctoxic are AMD-OZN analogues 2b and 2g and AMD-OZL analogues 4a-4c. However, compared to AMD, they are several fold less cytotoxic to CEM-cells in vitro."}, "[2]": {"system": "P388 lymphocytic leukemia", "experiment": "In vivo P388 assay", "design": "species or system mice", "conditions": "ip days 1,5,9; for antitumor activity against P388 (in words): CDF1 mice; for % ILS (percent increase in life span) / MST (median survival time) / Cure (over 60 day survivors): at optimum dose; for % ILS (percent increase in life span) / MST (median survival time): CDF1 male mice; for MST (median survival time): control MST 11.0 days; for Cure (over 60 day survivors): group of 7 CDF1 male mice, average of 2 experiments", "description": "^c 10^6 P388 cells implanted intraperitoneally on day 0 into a\ngroup of 7 CDF1 male mice. Drugs were administered, also ip, in 10%\nMe2 SO--saline on days 1,5,9. Test solutions were kept at 0-4.degree\nC., protected from light.\nThese analogues were tested for antitumor activity against P388 lymphocytic leukemia in male CDF1 hybrid mice (Table 6). The tumor was implanted intraperitoneally (ip) with 10^6 cells. The drugs were administered once daily on days 1, 5, 9 beginning 1 day after implantation."}, "mouse leukemia cells": {"system": "mouse leukemia cells", "conditions": "known before this invention; cited from earlier work"}, "purified calfthymus DNA": {"system": "purified calfthymus DNA", "experiment": "Thermal denaturation of DNA (ΔTm)", "assay_type": "binding, calf", "conditions": "0.01 M phosphate, EDTA, buffer pH 7.0", "description": "^a ΔTm = Tm of DNAdrug complex minut Tm of\npurified calfthymus DNA.\n(§1) Medium: 0.01 M phosphate containing 10^-4 EDTA, buffer pH 7.0.\nMelting points were determined on a Thomas-Hoover melting point apparatus at a heating rate of 2° C./min. Dry column chromatography was accomplished with silicic acid powder (Bio-Sil A 100-200 mesh, Bio-Rad Laboratories, Inc.) or acid alumina (Woelm grade 1). Thin layer chromatography was performed on silica gel plates (Brinkmann Instrument, Inc.). For oxazinone analogues (2b), the silica gel plates were exposed to the vapor of conc. HCL in an air-tight container for 20 min before application of the compound for TLC. This procedure helped to prevent the streaking of the compounds in the chromatogram. Solvent systems were (A) EtOAc-acetone (2:1); (B) dry t-BuOH-C6 H6 --C6 H5 N (85:12.5:2.5); (C) Cifferri, the organic phase of the mixture EtOAc-MeOH-H2 O (20:L:20). High performance-liquid chromatography was carried out on a Varian Model 5020 gradient liquid chromatograph equipped with CD-111L chromatography data system and fitted with Varian reversed-phase C18 column with isocratic solvent systems, CH3 CN-5 mM NH4 OAc buffer, pH 6.4 (68:32), flow rate 15 mL/mn, with UV-visible variable and fixed wavelength dual detectors at 254,440, 500 and 252 nm. Spectra were determined on the following instruments: IR spectra were obtained on the Perkin-Elmer Model 237 Infra Cord with KBr micropellets or in CHCl3 solutions; UV-visible spectra were obtained on a Gilford 250 spectrophotometer, which, with the addition of a baseline reference compensator (Analog Multiplexer 5053) and thermoprogrammer, auto four cell programmer and thermoelectric cell holder 2577, were used to obtain thermal denaturation curves; specific rotational values were determined in CHCl3 solutions using a Cary 60 spectropolarimeter; NMR spectra were obtained in a JOEL FQ -90 MHz spectrometer equipped with Fourier transform. All elemental analyses were within +0.4%, unless it is specified otherwise.\nDNA-DRUG BINDING BY DIFFERENCE SPECTRAL AND THERMAL DEVATURATION OF DNA (ΔTm) TECHNIQUES […]"}, "DNA": {"system": "DNA", "experiment": "DNA-drug binding by difference spectral (absorption and CD) techniques", "conditions": "for Diff. CD Spectra -Δ[θ]max (nm): DNA-bound vs combined individual spectra; for Diff. CD Spectra -Δ[θ]max (nm) / Diff. Absorption Spectra -Δεmax (nm): 340-600 nm, wavelength in brackets, phosphate buffer pH 7.0; for Diff. Absorption Spectra -Δεmax (nm): free minus DNA-bound spectrum", "description": "^b Diff. Absorption Spectra is the calculated absorption spectra\nobtained by subtracting the spectrum of the DNAbound analogue from the\nspectrum of the free analogue, measured at 340-600 nm.\n^c Diff. CD Spectra is the calculated CD Spectra obtained as the\ndifference of the DNAbound from the combined individual spectra of\nanalogues and DNA at 340-600 nm.\nas §1\nDNA-DRUG BINDING BY DIFFERENCE SPECTRAL AND THERMAL DEVATURATION OF DNA (ΔTm) TECHNIQUES\nThese experiments were performed according to the methods described by Sengupta et al., Cancer Chemother. Rep., 1974, 58, p. 35, Sengupta et al, J. Med. Chem., 1981, 24, p. 1052 and Sengupta et al, 1983, 26, p. 448, Sengupta et al, 1978, Biochem. Biophys Acta, 521, p. 89."}, "[3]": {"experiment": "Solubility in distilled water", "description": "SOLUBILITY OF ACTINOMYCIN D AND ANALOGUES 2b, 3b AND 4b IN DISTILLED WATER AT 20° C. AND 4° C."}}, "note": "Numbered stars: 1 amine (or outer) side, 2 acyl side, 3 side chain; on linkers, the order of the positions; unused ones are H or OH. Bridge positions count the residues as written; N and C are the ends. Square brackets hold non-standard residues; d marks the D form. Peptide text beside a SMILES is read from it. I, II: the chains in the order shown. Actinocin(9to1) = Cc1c2oc3c(C)ccc(C(=O)[*:1])c3nc-2c(C(=O)[*:2])c(N)c1=O; NMeV = CN[C@H](C(=O)O)C(C)C; Sar = CNCC(=O)O", "data": [{"smiles": "Cc1ccc(C(=O)N[C@@H]2C(=O)N[C@H](C(C)C)C(=O)N3CCC[C@H]3C(=O)N(C)CC(=O)N(C)[C@@H](C(C)C)C(=O)O[C@@H]2C)c2c1Oc1c(c(C(=O)N[C@@H]3C(=O)N[C@H](C(C)C)C(=O)N4CCC[C@H]4C(=O)N(C)CC(=O)N(C)[C@@H](C(C)C)C(=O)O[C@@H]3C)c3nc(-c4ccccc4)c(=O)oc3c1C)N2", "note": "[Compound 2b]", "values": [{"measurement": "cytotoxicity to CEM cells (in words)", "setting": "[1]; CCRF-CEM in log phase", "value": "most cyctoxic"}, {"measurement": "In Vitro (CCRF-CEM) ID50", "setting": "[1]", "value": 440, "unit": "ng/mL"}, {"measurement": "activity against human cancer cells (in words)", "setting": "[1]", "value": "highest human antitumor effects"}, {"measurement": "antitumor activity against P388 (in words)", "setting": "[2]", "value": "most active"}, {"measurement": "% ILS (percent increase in life span)", "setting": "[2]", "value": 309, "unit": "%"}, {"measurement": "MST (median survival time)", "setting": "[2]", "value": 45, "unit": "days"}, {"measurement": "Cure (over 60 day survivors)", "setting": "[2]", "value": "2/7"}, {"measurement": "activity against mouse leukemia cells", "setting": "mouse leukemia cells", "value": "active"}]}, {"smiles": "Cc1c2oc3c(C)c(O)cc(C(=O)N[C@@H]4C(=O)N[C@H](C(C)C)C(=O)N5CCC[C@H]5C(=O)N(C)CC(=O)N(C)[C@@H](C(C)C)C(=O)O[C@@H]4C)c3nc-2c(C(=O)N[C@@H]2C(=O)N[C@H](C(C)C)C(=O)N3CCC[C@H]3C(=O)N(C)CC(=O)N(C)[C@@H](C(C)C)C(=O)O[C@@H]2C)c(N)c1=O", "note": "[Compound 1b, 7-HYDROXY ACTINOMYCIN D]", "values": [{"measurement": "ΔTm (Tm of DNA-drug complex minus Tm of DNA)", "setting": "purified calfthymus DNA", "value": "6.7 ± 0.15", "unit": "°C"}, {"measurement": "Diff. CD Spectra -Δ[θ]max (nm)", "setting": "DNA", "value": "31,000(485)"}, {"measurement": "Diff. Absorption Spectra -Δεmax (nm)", "setting": "DNA", "value": "9,380(550)"}]}, {"smiles": "Cc1nc2c(C(=O)N[C@@H]3C(=O)N[C@H](C(C)C)C(=O)N4CCC[C@H]4C(=O)N(C)CC(=O)N(C)[C@@H](C(C)C)C(=O)O[C@@H]3C)c3c(c(C)c2o1)Oc1c(C)ccc(C(=O)N[C@@H]2C(=O)N[C@H](C(C)C)C(=O)N4CCC[C@H]4C(=O)N(C)CC(=O)N(C)[C@@H](C(C)C)C(=O)O[C@@H]2C)c1N3", "note": "[Compound 3a]", "values": [{"measurement": "In Vitro (CCRF-CEM) ID50", "setting": "[1]", "value": 2900, "unit": "ng/mL"}, {"measurement": "% ILS (percent increase in life span)", "setting": "[2]", "value": 91, "unit": "%"}, {"measurement": "MST (median survival time)", "setting": "[2]", "value": 21, "unit": "days"}, {"measurement": "Cure (over 60 day survivors)", "setting": "[2]", "value": "0/7"}, {"measurement": "ΔTm (Tm of DNA-drug complex minus Tm of DNA)", "setting": "purified calfthymus DNA", "value": "0.0 ± 0.30", "unit": "°C"}, {"measurement": "Diff. CD Spectra -Δ[θ]max (nm)", "setting": "DNA", "value": "nil"}, {"measurement": "Diff. Absorption Spectra -Δεmax (nm)", "setting": "DNA", "value": "nil"}]}, {"smiles": "Cc1c2oc3c(C)ccc(C(=O)N[C@@H]4C(=O)N[C@H](C(C)C)C(=O)N5CCC[C@H]5C(=O)N(C)CC(=O)N(C)[C@@H](C(C)C)C(=O)O[C@@H]4C)c3nc-2c(C(=O)N[C@@H]2C(=O)N[C@H](C(C)C)C(=O)N3CCC[C@H]3C(=O)N(C)CC(=O)N(C)[C@@H](C(C)C)C(=O)O[C@@H]2C)c(N)c1=O", "note": "[Compound 1a, Actinomycin D, reference compound] (I: T[dV]P[Sar][NMeV] / II: T[dV]P[Sar][NMeV]; ester I:1-I:C, II:1-II:C; linker I:N-II:N via Actinocin(9to1))", "values": [{"measurement": "In Vitro (CCRF-CEM) ID50", "setting": "[1]", "value": 40, "unit": "ng/mL"}, {"measurement": "% ILS (percent increase in life span)", "setting": "[2]", "value": 136, "unit": "%"}, {"measurement": "MST (median survival time)", "setting": "[2]", "value": 26, "unit": "days"}, {"measurement": "Cure (over 60 day survivors)", "setting": "[2]", "value": "1/7"}, {"measurement": "ΔTm (Tm of DNA-drug complex minus Tm of DNA)", "setting": "purified calfthymus DNA", "value": "7.1 ± 0.15", "unit": "°C"}, {"measurement": "Diff. CD Spectra -Δ[θ]max (nm)", "setting": "DNA", "value": "40,000(390)"}, {"measurement": "DNA binding (in words)", "setting": "DNA; difference spectral or ΔTm techniques", "value": "binds to DNA strongly by intercalation"}, {"measurement": "Diff. Absorption Spectra -Δεmax (nm)", "setting": "DNA", "value": "8,240(425)"}, {"measurement": "solubility in distilled water", "setting": "[3]; 4° C.", "value": 20.5, "unit": "mg/mL"}, {"measurement": "solubility in distilled water", "setting": "[3]; 20° C.", "value": 0.9, "unit": "mg/mL"}]}, {"smiles": "Cc1c2oc3c(C)c4oc(-c5ccccc5)nc4c(C(=O)N[C@@H]4C(=O)N[C@H](C(C)C)C(=O)N5CCC[C@H]5C(=O)N(C)CC(=O)N(C)[C@@H](C(C)C)C(=O)O[C@@H]4C)c3nc-2c(C(=O)N[C@@H]2C(=O)N[C@H](C(C)C)C(=O)N3CCC[C@H]3C(=O)N(C)CC(=O)N(C)[C@@H](C(C)C)C(=O)O[C@@H]2C)cc1=O", "note": "[Compound 4b, 2-PHENYL-9,11-DIMETHYL-8-OXO-8H-OXAZOLO[4,5-b]PHENOXAZINE 4,6-BIS[CARBONYL-L-THREONYL-D-VALYL-L-PROLYLSARCOSYL-L-N-METHYLVALINE-(THR EONINE HYDROXYL)] LACTONE]", "values": [{"measurement": "In Vitro (CCRF-CEM) ID50", "setting": "[1]", "value": 310, "unit": "ng/mL"}, {"measurement": "activity against human cancer cells (in words)", "setting": "[1]", "value": "highest human antitumor effects"}, {"measurement": "antitumor activity against P388 (in words)", "setting": "[2]", "value": "most active"}, {"measurement": "% ILS (percent increase in life span)", "setting": "[2]", "value": 300, "unit": "%"}, {"measurement": "MST (median survival time)", "setting": "[2]", "value": 44, "unit": "days"}, {"measurement": "Cure (over 60 day survivors)", "setting": "[2]", "value": "2/7"}, {"measurement": "relative solubility in water (in words)", "setting": "[3]", "value": "more soluble in water at 4 °C than at 20 °C"}, {"measurement": "solubility in distilled water", "setting": "[3]; 4° C.", "value": 11, "unit": "mg/mL"}, {"measurement": "solubility in distilled water", "setting": "[3]; 20° C.", "value": 1.7, "unit": "mg/mL"}]}]}
